Test results reported in US8933195B2, “Histone deacetylase inhibitors and synthetic method thereof and use thereof in manufacture of medicaments” (Nanjing Yoko Biomedical R & D Ltd., priority 2011, dated 2015).
pIC50: −log10 of the molar value.

Tests used:
[1] = test system: Hela (human cervical cancer cells); experiment: MTT cancer cell growth inhibition; assay type: cell-based; conditions: 72 h
How it was run: (§1)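 Cells in DMEM or 1640 + 10% FBS, 1500 cells/well, overnight then treated 72 h at 37 °C, 5% CO2 with compound 10^−5–10^−10 M final (0.1% DMSO control). MTT added 4 h, formazan dissolved in DMSO, read at 570 nm; survival rate calculated.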

[2] = test system: BGC-823 (human gastric cancer cells); experiment: MTT cancer cell growth inhibition; assay type: cell-based; conditions: 72 h, read-out: GI50 BGC823
How it was run: as §1

[3] = test system: PANC-1; experiment: MTT cancer cell growth inhibition; assay type: cell-based; conditions: Homo sapiens, 72 h
How it was run: as §1

[4] = test system: A549 (human lung cancer cells); experiment: MTT cancer cell growth inhibition; assay type: cell-based; conditions: 72 h
How it was run: as §1

[5] = test system: U937 (human leukemia cells); experiment: MTT cancer cell growth inhibition; assay type: cell-based; conditions: U-937, 72 h
How it was run: as §1

[6] = test system: MCF-7 (human breast cancer cells); experiment: MTT cancer cell growth inhibition; assay type: cell-based; conditions: MCF7, 72 h
How it was run: as §1

[7] = test system: HT1080 (human fibrosarcoma cells); experiment: MTT cancer cell growth inhibition; assay type: cell-based; conditions: HT-1080, 72 h
How it was run: as §1

[8] = molecular target: HDAC1 (Homo sapiens, UniProt Q13547); experiment: Measurement of biochemical activities of HDAC (fluorescently-labeled acetylated lysine substrate); conditions: read-out: IC50 HDAC1
Chain of HDAC1 (Q13547 whole entry, species assumed, canonical isoform): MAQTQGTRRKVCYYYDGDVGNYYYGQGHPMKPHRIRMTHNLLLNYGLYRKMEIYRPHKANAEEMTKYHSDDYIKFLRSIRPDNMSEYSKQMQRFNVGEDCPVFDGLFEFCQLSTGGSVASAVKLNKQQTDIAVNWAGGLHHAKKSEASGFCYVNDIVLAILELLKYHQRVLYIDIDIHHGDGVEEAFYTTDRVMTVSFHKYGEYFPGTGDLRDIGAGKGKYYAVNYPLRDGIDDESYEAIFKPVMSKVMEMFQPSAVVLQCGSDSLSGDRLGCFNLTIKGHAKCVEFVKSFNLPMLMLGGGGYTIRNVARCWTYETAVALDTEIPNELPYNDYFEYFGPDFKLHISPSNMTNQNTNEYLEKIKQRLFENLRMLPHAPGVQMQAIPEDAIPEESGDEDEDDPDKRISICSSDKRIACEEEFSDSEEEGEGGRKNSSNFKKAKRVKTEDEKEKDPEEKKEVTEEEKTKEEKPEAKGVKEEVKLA
How it was run: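 For both HDAC isoforms, fluorescent acetyl-lysine substrate ([…] in reaction) incubated with enzyme and compounds for 30 min at 37; developer then added for 15 min at room temperature. Fluorescence read at excitation 360 nm, emission 460 nm.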

[9] = test system: DU145 (human prostate cancer cells); experiment: MTT cancer cell growth inhibition; assay type: cell-based; conditions: DU-145, 72 h
How it was run: as §1

[10] = test system: MOLT-4 (human acute lymphoblastic leukemia cells); experiment: MTT cancer cell growth inhibition; assay type: cell-based; conditions: 72 h
How it was run: as §1

[11] = test system: Human Lung Caner Cell NCI-H1975; experiment: Subcutaneously transplanted tumors in nude mice; assay type: in vivo; conditions: 20 mg/kg
Protocol: (§2) Tumor tissues in the vigorous growth period are cut into about 1.5 mm^3, and inoculated to the right axilla subcutaneous layer of the nude mice under aseptic conditions. For the subcutaneously transplanted tumors of the nude mice, the diameter of the transplanted tumors is measured by a vernier caliper. The mice are randomly grouped after the tumors grow to 100-200 mm^3. […] The diameter of the transplanted tumors is measured twice per week in the whole experimental process, and meanwhile the weight of the mice is weighed. The calculation formula of tumor volume (TV) is TV=½×a×b^2, where a and b represent length and width, respectively.
(§3) The relative tumor volume (RTV) is calculated according to the measured results, with the following calculation formula: RTV=Vt/V0, where V0 is the tumor volume obtained by measurement during administration in different cages (i.e., d0), Vt is the tumor volume obtained by measurement at each time. […] (Wc−WT)Wc×100%, where Wc is the tumor weight of the control group, and WT is the tumor weight of the treatment group.

[12] = test system: Human Gastric Adenocarcinoma Cell BGC-823; experiment: Subcutaneously transplanted tumors in nude mice; assay type: in vivo; conditions: 20 mg/kg
Protocol: as §2, §3

[13] = test system: Human Melanoma Cell A875; experiment: Subcutaneously transplanted tumors in nude mice; assay type: in vivo; conditions: 20 mg/kg
Protocol: as §2, §3

[14] = test system: Human Lymphoma Cell Ramos; experiment: Subcutaneously transplanted tumors in nude mice; assay type: in vivo; conditions: 20 mg/kg
Protocol: as §2, §3

[15] = test system: Human Blood Acute Monocytic Leukemia U937; experiment: Subcutaneously transplanted tumors in nude mice; assay type: in vivo; conditions: 20 mg/kg
Protocol: as §2, §3

Structure (SMILES) | GI50 [1] [nM] | GI50 [2] [nM] | GI50 [3] [nM] | GI50 [4] [nM] | GI50 [5] [nM] | GI50 [6] [nM] | GI50 [7] [nM] | pIC50 [8] | GI50 [9] [nM] | GI50 [10] [nM] | Tumor Inhibition Rate (1 − T/C) × 100% [11] [%] | Tumor Inhibition Rate (1 − T/C) × 100% [12] [%] | Tumor Inhibition Rate (1 − T/C) × 100% [13] [%] | Tumor Inhibition Rate (1 − T/C) × 100% [14] [%] | Tumor Inhibition Rate (1 − T/C) × 100% [15] [%]
O=C(CCCCCCC(=O)Nc1ccccc1)NO [SAHA, suberoylanilide hydroxamic acid, reference compound] | 37800 | 4500 | 7460 | 7700 | 2310 | 1800 | 3800 |  |  |  |  |  |  |  | 
C/C=C1\NC(=O)c2csc(n2)CNC(=O)C[C@@H](/C=C/CCSC(=O)CCCCCCC)OC(=O)[C@H](C)NC1=O [Compound 1-4] | 1300 | 2500 | 1600 | 2900 | 30 | 200 | 800 | > 6.00 | 360 | 100 |  |  |  |  | 
C/C=C1\NC(=O)c2csc(n2)CNC(=O)C[C@@H](/C=C/CCSC(=O)CCCCCCC)OC(=O)[C@H](C(C)(C)C)NC1=O [Compound 1-6] | 1000 | 400 | 3000 | 500 | 200 | 600 | 1300 | > 5.00 | 50 | 1000 | 59.19 | 60.26 | 66.64 | 60.94 | 66.37
C/C=C1\NC(=O)c2csc(n2)CNC(=O)C[C@@H](/C=C/CCSC(=O)CCCCCCC)OC(=O)[C@H](C(C)C)NC1=O [Compound 1-3] | 1000 | 60 | 6000 | 10000 | 500 | 1200 | 4000 | > 5.00 | 300 | 1000 | 56.40 | 59.38 | 63.89 | 70.08 | 65.21

The next lines start with results.

GI50 [1] [nM] | GI50 [2] [nM] | GI50 [3] [nM] | GI50 [4] [nM] | GI50 [5] [nM] | GI50 [6] [nM] | GI50 [7] [nM] | pIC50 [8] | GI50 [9] [nM] | GI50 [10] [nM] | Structure (SMILES) | Tumor Inhibition Rate (1 − T/C) × 100% [11] [%] | Tumor Inhibition Rate (1 − T/C) × 100% [12] [%] | Tumor Inhibition Rate (1 − T/C) × 100% [13] [%] | Tumor Inhibition Rate (1 − T/C) × 100% [14] [%] | Tumor Inhibition Rate (1 − T/C) × 100% [15] [%]
100 | 300 | 100 | 100 | 20 | 100 | 70 | > 6.99 | 30 | 20 | C/C=C1\NC(=O)c2csc(n2)CNC(=O)C[C@@H](/C=C/CCSC(=O)CCCCCCC)OC(=O)[C@H](Cc2ccc(O)cc2)NC1=O [Compound 1-8] | 53.23 | 56.83 | 68.07 | 58.33 | 68.32
5000 | 300 | 1500 | 400 | 20 | 700 | 300 | > 5.00 | 20 | 100 | C/C=C1\NC(=O)c2csc(n2)CNC(=O)C[C@@H](/C=C/CCSC(=O)CCCCCCC)OC(=O)[C@H](Cc2ccccc2)NC1=O [Compound 1-7] |  |  |  |  | 
